Here are results for six molecules from patent US20110283416A1, “METHODS FOR PLANT FIBER CHARACTERIZATION AND IDENTIFICATION” (LE CENTRE NATIONAL DE LA RECHERCHE SCIENTIFIQUE, priority 2008, published 2011).

Molecules are shown by their SMILES. Read-outs that look alike come from different tables or passages of the source.

Broadly, the Km is the concentration of substrate that gives half-maximal velocity.

The target of data set [1] is T1, CYP77A4 (Arabidopsis thaliana, UniProt Q9LZ31).
T1 sequence (Q9LZ31 1-512): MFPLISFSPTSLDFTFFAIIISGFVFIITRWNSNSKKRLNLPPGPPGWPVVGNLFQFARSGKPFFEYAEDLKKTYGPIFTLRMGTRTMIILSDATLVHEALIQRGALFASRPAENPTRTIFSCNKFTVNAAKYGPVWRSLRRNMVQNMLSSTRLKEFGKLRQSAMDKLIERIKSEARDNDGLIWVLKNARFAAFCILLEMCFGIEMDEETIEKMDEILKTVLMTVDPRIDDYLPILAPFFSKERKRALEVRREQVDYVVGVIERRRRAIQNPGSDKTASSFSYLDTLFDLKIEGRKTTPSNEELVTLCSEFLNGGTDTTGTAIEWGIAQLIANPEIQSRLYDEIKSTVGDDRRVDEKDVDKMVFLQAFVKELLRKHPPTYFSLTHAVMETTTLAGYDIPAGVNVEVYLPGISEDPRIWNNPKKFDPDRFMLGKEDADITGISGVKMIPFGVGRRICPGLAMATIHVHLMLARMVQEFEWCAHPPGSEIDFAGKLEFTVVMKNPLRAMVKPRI
The settings on record: for amount of conversion of fatty acid / conversion as substrate of CYP77A4 (in words): 100 μM fatty acid, 10 pmole CYP77A4, 27° C., 15 minutes (FIG. 4); for epoxide product formed by CYP77A4 (GC-MS identification): 100 μM substrate, 15-20 min.

Data set [2] concerns the target T1, CYP77A4. It is filed as biochemical. As to conditions: 4.5 pmoles CYP77A4, 5 min, calculated with Enzyme Kinetics (Sigma Plot); for Km: read-out: Km for metabolism by CYP77A4.
Data set [3] has as its system CYP77A4 expression. As to conditions: in vivo.
In data set [4] the test system is CYP77A4 expression. Nature of the data set: Induction of CYP77A4 expression by external factors, quantitative PCR on entire plantlets. As to conditions: after 5 hours; ethanol as control; qPCR (FIG. 3). In general terms: In qPCR the cycle at which signal appears reflects the starting amount.
[5] abbreviates: GC-MS analysis of metabolite fraction.
Setting [6] is: 27° C., 10 pmole CYP77A4, NADPH.
Where [7] appears, read: 100 μM, 15 minutes, 27° C., 10 pmole CYP77A4, NADPH.

Consider `CCCCCCCCCCCC(=O)O` [C12:0, lauric acid], for which, in data set [1], the “amount of conversion of fatty acid” value is given as “about 35%” and the “conversion as substrate of CYP77A4 (in words)” value (shortened to “conversion as substrate”) was “optimal substrate”. Also, in data set [1] (setting [5]), the “share of omega-1 hydroxylated metabolite” value is 53%, the “share of omega-2 hydroxylated metabolite” value is recorded as 15.2%, the “share of omega-3 hydroxylated metabolite” value turned out to be 7.6% and the “share of omega-4 hydroxylated metabolite” value turned out to be 18.2%. Besides, the “share of omega-5 hydroxylated metabolite” value in data set [1] (setting [5]) was found to be 6%.
Take `CCCCC/C=C\C/C=C\CCCCCCCC(=O)O` [linoleic acid]: in data set [1], the “conversion as substrate” value is recorded as “increasing order of conversion”. Moreover, the “epoxide product formed by CYP77A4 (GC-MS identification)” value in data set [1] (setting [6]) was 12-13 epoxy form of linolenic acid. Moreover, in data set [2], the “Vmax for metabolism by CYP77A4” value is given as 13±0.3 nmol·min^−1·nmol^−1 P450 and the Km was 61 ± 3 µM.
As to `CC/C=C\C/C=C\C/C=C\CCCCCCCC(=O)O` [linolenic acid], in data set [1], the “amount of conversion of fatty acid” value is “about 20%” and the “conversion as substrate” value is given as “increasing order of conversion”. Also, in data set [1] (setting [7]), the “share of 12-13 mono-epoxy form among mono-epoxy products” value is 87% and the “share of each of the other two mono-epoxy structures” value was found to be 6.5%. For the same molecule, the Km in data set [2] was 29 ± 4 µM.
Regarding `OC[C@@H](O)[C@@H](O)[C@H](O)[C@H](O)CO` [mannitol], in data set [3], the “induction of the expression of CYP77A4” value is listed as ~20 fold and the “induction of the transcription of CYP77A4” value is recorded as 18 fold.
As to `CCCCCCCC/C=C\CCCCCCCC(=O)O` [oleic acid], in data set [1], the “conversion as substrate” value is listed as “increasing order of conversion”. Further, the “epoxide product formed by CYP77A4 (GC-MS identification)” value in data set [1] (setting [6]) is reported as “epoxy form (at position 9, 10) of oleic acid”. Also, the “Vmax for metabolism by CYP77A4” value in data set [2] is on record as 26±5 nmol·min^−1·nmol^−1 P450.
On to `CCC1(c2ccccc2)C(=O)NC(=O)NC1=O` [phenobarbital], for which the “induction of the expression of CYP77A4” value in data set [4] stood at 12 fold.
